{"source": "patent US20160346304A1", "about": "“AGENT FOR SUSTAINING SATIETY AND METHOD FOR SUSTAINING SATIETY” (JICHI MEDICAL UNIVERSITY, priority 2014, published 2016)", "key": {"C57BL/6J male mice [1]": {"tested_on": "C57BL/6J male mice", "assay": "Food intake in fasted mice after oral gavage or intraperitoneal administration", "type": "in vivo", "conditions": "for cumulative food intake (energy (kcal)): comparative example, incl. energy of administered sugar; for cumulative food intake (relative value (%)): mice fasted 16 hours", "method": "As the experimental animal, C57BL/6J male mice were used. The mice were acclimated to the environment by preliminary rearing for 1 week or more in individual cages. After fasting the mice for 16 hours from 18:00 p.m. on the previous day of the experiment, each test solution was orally administered by gavage or intraperitoneally administered to the mice. In each administration route, physiological saline (10 mL/kg) was administered in a control group, and D-psicose (0.3 g/kg, 1 g/kg, or 3 g/kg) was administered in a test group. The concentration of the respective test solutions at this time was […], 10%, and 30%, respectively. Each solution was administered at 9:45 a.m., and from 10:00 a.m., the mice were allowed free access to CE-2 feed (a standard mouse feed with a good nutritional balance manufactured by CLEA Japan, Inc.), and the food intake was measured over time after 0.5 hours, 1 hour, 2 hours, 3 hours, 6 hours, and 24 hours.\nIncidentally, as a comparative example, an experiment of oral administration by gavage of D-glucose (1 g/kg and 3 g/kg), which has a sweetness equivalent to D-psicose and has a similar structure, but is metabolized to contribute to energy production, was performed in the same manner.\nThe results obtained by plotting the elapsed time after administration on the abscissa, and the cumulative food intake (relative value (%)) at each elapsed time on the ordinate are shown in FIG. 1 (oral administration by gavage) and FIG. 2 (intraperitoneal administration). Incidentally, the cumulative food intake (relative value (%)) is expressed as the ratio of the cumulative food intake in each group with the average food intake in the physiological saline group at each time in each experiment performed taken as 100%. The obtained results are expressed as a mean and a standard error. A statistical test was performed by a one-way analysis of variance, and if a significant difference was detected, a Dunnett's test in comparison with the control group was performed. The significance level for the test was set to less than 5% on both sides, and the data was marked with * when the P value was less than 5%, and the data was marked with ** when the P value was less than 1%.\nThe cumulative food intake (energy (kcal)) after D-glucose (1 g/kg and 3 g/kg) was orally administered by gavage in the comparative example is shown in FIG. 3. […] The notation of the results and the statistical analysis is the same as in FIGS. 1 and 2."}, "C57BL/6J male mice [2]": {"tested_on": "C57BL/6J male mice", "assay": "Conditioned taste aversion test (preference to saccharin solution)", "type": "in vivo", "conditions": "conditioning on day 6, test on day 8", "method": "As the experimental animal, C57BL/6J male mice which were the same as used in the previous experiment were used. The mice reared in individual cages were given two bottles of water only for 2 hours in a period between 10:00 a.m. and 12:00 p.m. for 5 days, whereby the mice were acclimated to the water restriction schedule. On day 6, a 0.15% saccharin solution was presented for 30 minutes, and thereafter, lithium chloride (3 mmol/kg) was intraperitoneally administered, whereby the mice were made to acquire an aversion to the taste of the saccharin solution (conditioning). In the same manner, a control group in which physiological saline (10 mL/kg) was orally administered and a test group in which D-psicose (1 g/kg or 3 g/kg) was orally administered were prepared. On day 7 serving as a rest day, the above-described water restriction schedule was performed. On day 8 serving as a test day, two bottles, one bottle containing a 0.15% saccharin solution and the other bottle containing water, were simultaneously presented for 30 minutes, and the ratio of preference to the saccharin solution (the intake amount of saccharin/the total intake amount from the two bottles) was determined.\nThe ratio of preference to the saccharin solution after making the mice to acquire a conditioned taste aversion is shown in FIG. 4. The obtained results are expressed as a mean and a standard error. A statistical test was performed by a one-way analysis of variance, and a Dunnett's test in comparison with the control group was performed. The data was marked with ** when the P value was less than 1%."}, "c-Fos": {"tested_on": "c-Fos", "assay": "c-Fos expression (marker of neuronal activation) by immunostaining in nodose ganglion and medullary nucleus tractus solitarius", "type": "in vivo, mice", "conditions": "oral gavage 1 g/kg, fasted overnight, compared with physiological saline group", "method": "The activation of “vagal afferent nuron” and “medullary nucleus tractus solitarius”, which is a projection site of the vagal afferent nerves, caused by the oral administration of D-psicose was analyzed based on the expression level of c-Fos, which is a marker of neuronal activation, using an immunostaining method. The c-Fos is a kind of immediate early gene and is an intranuclear protein whose expression level increases with the activation of a nerve and can be utilized as a marker of neuronal activation. The cell bodies of the vagal afferent neurons are all localized in the nodose ganglion, and these vagal afferent neurons are bipolar which project to the peripheral side (many internal organs such as heart, lung, gastrointestinal tract, pancreas, and liver) and the central side (medullary nucleus tractus solitarius).\nAs the experimental animal, C57BL/6J male mice were used. The mice were acclimated to the environment by preliminary rearing and handling for 1 week or more in individual cages. After fasting the mice overnight, D-psicose (1 g/kg) was orally administered by gavage. […]\nThe results of the expression level of c-Fos in the nodose ganglion and in the medullary nucleus tractus solitarius in the mice after orally administering D-psicose are shown in FIG. 5. The obtained results are expressed as a mean and a standard error. […]"}, "C57BL/6J male mice [3]": {"tested_on": "C57BL/6J male mice", "assay": "Liquid food intake in sham-operated and subdiaphragmatic vagotomized mice", "type": "in vivo", "conditions": "oral gavage 1 g/kg", "method": "As the experimental animal, C57BL/6J male mice were used. The mice were divided into the following two groups: a sham-operated group consisting of sham-operated mice; and a subdiaphragmatic vagotomized group consisting of subdiaphragmatic vagotomized mice, and were subjected to the operation, respectively. After a recovery period of one week, the mice were fasted overnight (for 16 hours) on the previous day of the experiment of food intake. Thereafter, each test solution was orally administered by gavage to the mice, and the intake of a liquid food (milk for babies and toddlers) after the administration was examined. As the respective test solutions administered, in both of the sham-operated group and the subdiaphragmatic vagotomized group, physiological saline (10 mL/kg) or D-psicose (1 g/kg) was orally administered by gavage. The concentration of the D-psicose solution at this time was 10%. Each test solution was orally administered by gavage to mice at 9:45 a.m., and from 10:00 a.m., the mice were allowed free access to the liquid food, and the food intake was measured over time.\nThe cumulative liquid food intake after orally administering D-psicose (1 g/kg) by gavage to the subdiaphragmatic vagotomized mice and the sham-operated mice is shown in FIG. 6. […] The obtained results are expressed as a mean and a standard error. […]"}, "healthy subjects": {"tested_on": "healthy subjects", "assay": "Satiety, hunger and appetite questionnaire (VAS) after breakfast in healthy human subjects", "type": "in vivo", "conditions": "humans", "method": "Therefore, in this test, after fasting the subjects from 12 hours before the test day, the subjects were made to ingest either of the test solutions (150 mL) prepared to have the same degree of sweetness by adding 5 g of D-psicose or 10 mg of aspartame which is a high intensity sweetener as a control food. Incidentally, the concentration of the respective test solutions was 3.3% in the D-psicose group and 0.005% in the aspartame group. Further, the ingestion amount of D-psicose of the subjects was 0.071 to 0.096 g (mean: 0.085 g) per kilogram of body weight. After the ingestion, breakfast (sandwich, yogurt, and juice) (total calories: 405 kcal, proteins: 10.2%, fats: 28.4%, carbohydrates: 61.4%) was ingested in 10 minutes. During the test, the subjects were fasted except that they were allowed to free access to only prescribed water.\nThe questionnaire with respect to appetite was filled out by the evaluation using the VAS (Visual Analog Scale) method and was prepared according to NPL 11. As the questionnaire items, the following three items: satiety, hunger, and appetite were set. In each item, the subjects were made to put a mark on a line with a length of 100 mm at a position most close to the state at that moment, then, the length from the left end to the position where the mark was put was measured with a ruler and converted into a numerical value. The obtained results are expressed as a mean and a standard error. A statistical test was performed using an unpaired Student's t test, and the data was marked with * when the P value was less than 5%, the data was marked with ** when the P value was less than 1%, and the data was marked with *** when the P value was less than 0.1%."}, "[4]": {"assay": "Onset and duration of satiety after ingestion of the agent", "type": "in vivo"}, "[5]": {"conditions": "cited from earlier work"}, "[6]": {"conditions": "as compared with D-glucose and D-fructose (NPL 9); cited from earlier work"}, "[7]": {"conditions": "oral administration by gavage, 1 g/kg"}, "[8]": {"conditions": "oral administration by gavage, 3 g/kg"}, "[9]": {"conditions": "5 g in 150 mL before breakfast, in comparison with control food (aspartame)"}}}
{"smiles": "O=C[C@H](O)[C@@H](O)[C@H](O)[C@H](O)CO", "note": "[D-glucose, reference compound]", "values": [{"measurement": "cumulative food intake (energy (kcal))", "setting": "C57BL/6J male mice [1]; [7]", "result": "did not affect food intake"}, {"measurement": "cumulative food intake (energy (kcal))", "setting": "C57BL/6J male mice [1]; [8]", "result": "did not affect food intake"}]}
{"smiles": "O=C(CO)[C@H](O)[C@H](O)[C@H](O)CO", "note": "[D-psicose]", "values": [{"measurement": "cumulative food intake (relative value (%))", "setting": "C57BL/6J male mice [1]; intraperitoneal administration, 1 g/kg", "result": "no effect on food intake"}, {"measurement": "cumulative food intake (relative value (%))", "setting": "C57BL/6J male mice [1]; intraperitoneal administration, 3 g/kg, 0.5 to 6 hours after administration", "result": "significantly decreased"}, {"measurement": "cumulative food intake (relative value (%))", "setting": "C57BL/6J male mice [1]; oral administration by gavage, 0.3 g/kg, any time zone after administration", "result": "a change in food intake was not observed"}, {"measurement": "cumulative food intake (relative value (%))", "setting": "C57BL/6J male mice [1]; oral administration by gavage, 1 g/kg, 0.5 to 6 hours after administration", "result": "significantly decreased"}, {"measurement": "cumulative food intake (relative value (%))", "setting": "C57BL/6J male mice [1]; oral administration by gavage, 3 g/kg, 0.5 to 6 hours after administration", "result": "significantly decreased"}, {"measurement": "effective amount to reduce food intake in mice", "setting": "C57BL/6J male mice [1]; oral administration by gavage, mice", "result": 1, "unit": "g/kg"}, {"measurement": "ratio of preference to the saccharin solution", "setting": "C57BL/6J male mice [2]; [7]", "result": "did not affect the preference to the saccharin solution"}, {"measurement": "ratio of preference to the saccharin solution", "setting": "C57BL/6J male mice [2]; [8]", "result": "did not affect the preference to the saccharin solution"}, {"measurement": "expression level of c-Fos in the medullary nucleus tractus solitarius", "setting": "c-Fos", "result": "significantly increased"}, {"measurement": "expression level of c-Fos in the nodose ganglion", "setting": "c-Fos", "result": "significantly increased"}, {"measurement": "cumulative liquid food intake (g)", "setting": "C57BL/6J male mice [3]; sham-operated group, up to 3 hours after administration", "result": "significantly suppressed"}, {"measurement": "cumulative liquid food intake (g)", "setting": "C57BL/6J male mice [3]; subdiaphragmatic vagotomized group", "result": "the effect was all lost"}, {"measurement": "hunger (VAS)", "setting": "healthy subjects; 5 g before breakfast, from immediately after breakfast up to after 4 hours", "result": "significantly suppressed"}, {"measurement": "duration of effect of suppressing appetite (VAS)", "setting": "healthy subjects; [9]", "result": "≥ 4", "unit": "h"}, {"measurement": "duration of effect of suppressing hunger (VAS)", "setting": "healthy subjects; [9]", "result": "≥ 4", "unit": "h"}, {"measurement": "satiety after eating (VAS)", "setting": "healthy subjects; [9]", "result": "sustained"}, {"measurement": "time until return to the state before the ingestion", "setting": "[4]", "result": 24, "unit": "h"}, {"measurement": "time until the effect is exhibited after the ingestion", "setting": "[4]", "result": "about 15 minutes"}, {"measurement": "increase in blood glucose level after eating", "setting": "[5]; humans, 5 g ingested along with a regular meal (NPL 6, NPL 7)", "result": "suppressed"}, {"measurement": "blood glucose level", "setting": "[5]; ingested alone (NPL 7)", "result": "does not increase"}, {"measurement": "blood glucose level after eating", "setting": "[5]; prediabetic adults, 5 g with breakfast versus 10 mg aspartame, crossover (NPL 6)", "result": "significant decrease"}, {"measurement": "absorption in the small intestine", "setting": "[6]", "result": "slower"}]}
{"smiles": "[Cl-].[Li+]", "note": "[lithium chloride, reference compound]", "values": [{"measurement": "ratio of preference to the saccharin solution", "setting": "C57BL/6J male mice [2]; intraperitoneal, 3 mmol/kg", "result": "significantly decreased"}]}
